Test results reported in patent US3970648A, “2-[2-(5-Nitro-2-furyl)vinyl]-4-(anilino)quinazolines” (Diamond Shamrock Corporation, priority 1974, dated 1976).
Positions of bridges follow the written chain, without caps; N, C: chain ends. Non-standard residues stand in square brackets, D forms with d. Residues, ends and D or L forms follow the SMILES beside them. *: point of attachment. Ileψ(thiazoline)Cys = CC[C@H](C)[C@H](N)C1=N[C@H](C(=O)*)CS1; dOrn = NCCC[C@@H](N)C(=O)O

What was measured:
[1] = test system: Streptococcus faecalis; assay: Bactericide test, Streptococcus faecalis (agar streak plate); format: cell-based; conditions: 100% inhibition at lower concentrations
Excerpt: (§1) Test formulations were examined for bactericidal and/or bacteriostatic activity against the test organisms shown in Tables A and B. These organisms were chosen as being representative of commercially important pathogens affecting animal agriculture. The antibiotic chlortetracycline was chosen as a positive control, since it has a broad spectrum of activity against a large number of organisms, and its activity can be used for comparative purposes.
(§2) Basic test formulations of the product of Examples I, II, III, and of chlortetracycline were prepared by dissolving 16 mg (0.016 g) in 2.0 ml of stock emulsifier solution (0.25% Triton X-155 in acetone by volume) and making each solution up to 50 ml with deionized water. The concentration of the test compound in the basic formulation was 320 ppm. Lower concentrations of the test compound were obtained by diluting the basic formulation with a 4% solution of the stock emulsifier in deionized water so that each dilution in the series differed only in test compound content.
(§3) Nutrient-tryptic soy agar (NTA) consisting of 2.0% Difco Bactoagar 0.8% nutrient broth (Difco), and 0.5% tryptic soy broth (Difco) was prepared and sterilized by autoclaving. A 2 ml aliquot of each test formulation was added to 8 ml of molten NTA. This mixture was then plated in a sterile polystyrene petri dish (100 × 15 mm). After the agar was set, suspensions of each of the test organisms were simultaneously streaked onto the surface of the agar. The inoculated plates were incubated for 48 hr at 28°C. The inhibition of growth of each organism was rated by visual comparison with the organism developing on non-treated agar. Growth inhibition reported as per cent control was rated in three categories as follows: 0% control, growth equivalent to that on non-treated agar; 50% control, sparse development and separated colonies; 100% control, no visible growth or development of colonies.
(§4) Test formulations of the product of Example IV were examined for bactericidal and/or bacteriostatic activity against the test organisms shown in Table B using the Bactericide Test described in Example V. The inhibition of organism growth with each diluted test formulation was rated visually by comparison with the organism developing on a non-treated control agar plate. Growth inhibition reported as per cent control was rated in three categories as follows: 0% control, growth equivalent to that on non-treated agar; 50% control is sparse development and separated colonies; and 100% control, development of individual colonies was not apparent.

[2] = test system: Salmonella cholerasuis; assay: Bactericide test, Salmonella cholerasuis (agar streak plate); format: cell-based; conditions: Salmonella, read-out: % Control In Vitro Growth
Excerpt: as §1, §2, §3, §4

[3] = test system: Salmonella gallinarum; assay: Bactericide test, Salmonella gallinarum (agar streak plate); format: cell-based; conditions: Salmonella enterica, GALLINARUM, read-out: % Control In Vitro Growth
Excerpt: as §1, §2, §3, §4

[4] = test system: Erysipelothrix rhusiopathiae; assay: Bactericide test, Erysipelothrix rhusiopathiae (agar streak plate); format: cell-based; conditions: 100% inhibition at lower concentrations
Excerpt: as §1, §2, §3

[5] = test system: Bordetella bronchiseptica; assay: Bactericide test, Bordetella bronchiseptica (agar streak plate); format: cell-based; conditions: 100% inhibition at lower concentrations
Excerpt: as §1, §2, §3

[6] = test system: Streptococcus agalactiae; assay: Bactericide test, Streptococcus agalactiae (agar streak plate); format: cell-based; conditions: 100% inhibition at lower concentrations
Excerpt: as §1, §2, §3

[7] = test system: Streptococcus group E; assay: Bactericide test, Streptococcus group E (agar streak plate); format: cell-based; conditions: 100% inhibition at lower concentrations
Excerpt: as §1, §2, §3

[8] = test system: Vibrio coli; assay: Bactericide test, Vibrio coli (agar streak plate); format: cell-based; conditions: 100% inhibition at lower concentrations
Excerpt: as §1, §2, §3

[9] = Growth promotion and feed efficiency in chicks, Example VII (Table I); format: in vivo, broiler cross chicks; conditions: bacitracin 4 g/T alone in basal ration (negative control); 4 weeks
Excerpt: One hundred 20 day-old broiler cross chicks were weight equalized into 15 groups of eight chicks each and placed in battery brooders. The 40 chick treatment groups (five replicates) were fed the one of the three rations described below for a 4 week period. Weekly measurements of body weights and feed consumption were made by replicate, and these measurements used to calculate weight gain and feed efficiency.
The commercial type broiler starter basal ration which was used in this study was designated as the Basal Ration, and had the following composition:
The preceding basal ration was mixed with bacitracin at a level of 4 g/T as the only growth stimulant to simulate commercial practice. This mixture was designated as the Basal Ration + Bacitracin (4 g/T) and constituted the negative control in this study.
A second ration was prepared by fortifying the Basal Ration + bacitracin described above with the Product from Example I above at a level of 200 g/T, and was designated as Basal Ration + Bacitracin + Product of Example I (200 g/T). A third ration was prepared by fortifying the Basal Ration + bacitracin described above with chlortetracycline (CTC) at a level of 200 g/T, and was designated as Basal Ration + Bacitracin + Chlortetracycline (200 g/T). Chlortetracycline served as the positive control in this test because it had shown strong growth promotion in numerous previous tests at this therapeutic level.
The commercial value of the product of Example I is indicated by the fact that these significant responses were obtained in addition to the growth stimulation provided by the presence of bacitracin in the ration. It is important to note that the negative controls in this example and in Examples VIII and X which follow were characterized by rapid rates of growth. This high plane of growth and feed efficiency performance on the part of the negative controls makes the responses to the test compounds all the more meaningful.
The term "growth promotion" is used herein to describe the beneficial effect of a compound in eliciting a more rapid rate of weight gain when compared to the weight gain of control animals not fed the compound. "Feed efficiency" is a term regularly used in animal husbandry and is a measure of the pounds of feed required to produce a pound of gain in the weight of the animal. A lower mathmatical value for feed efficiency reflects improved performance. […] In this case, as in the case of the weight gain (fifth column), an improved performance is indicated by a higher positive number.

[10] = Growth promotion in chicks at low feed levels, Example VIII (Table II); format: in vivo, broiler cross chicks; conditions: 4 g/T in basal ration; 4 weeks
Excerpt: Day old broiler cross chicks were weight equalized into groups of eight chicks each and were placed in battery brooders. The 32 chick treatment groups (four replicates) were fed one of the five rations described below for a 4 week period. Weekly measurements of body weights and feed consumption were made by replicate, and these measurements used to calculate weight gain and feed efficiency.
The basal ration was the basal ration used in Example VII above. The remaining five rations were obtained by mixing the indicated quantities of bacitracin (4 g/T), chlortetracycline (10 g/T), product of Example I (10 g/T), and product of Example III of U.S. Pat. No. 3,542,784 -- Burch (10 g/T) as growth promotants with the basal ration.

[11] = Growth promotion in chicks, Example XI (Table V); format: in vivo, broiler cross chicks; conditions: for feed efficiency (in words) / growth rate (in words): 25 g/T; for Average 4 Week Performance: Feed Efficiency / Average 4 Week Performance: Gain / Improved Response Over Basal Ration: Feed Efficiency / Improved Response Over Basal Ration: Gain: 25 g/T in basal ration, 4 weeks
Excerpt: (§5) This example compares growth promotion activity of the product of Example I with other growth promotants at a concentration of 25 g/T in the Basal Ration described in Example VII. The other growth promotants include the product described in Example I of U.S. Pat. No. 3,542,784 -- Burch and quinoxaline-1,4-dioxide. Day old broiler cross chicks were weight equalized into groups of eight chicks each, and four replicates of eight chicks each were fed the experimental rations over a 4 week period.
The growth promotion tests described in Example X were repeated with the exception that five replicates of eight chicks each were fed the formulations described in Table V for 4 weeks.

[12] = Growth promotion in chicks at 25 g/T, Example X (Table IV); format: in vivo, broiler cross chicks
Excerpt: as §5

[13] = 25 g/T in basal ration, 4 weeks

O=[N+]([O-])c1ccc(C=Cc2nc(Nc3ccccc3)c3ccccc3n2)o1 [Example IV, 2-[2-(5-nitro-2-furyl)vinyl]-4-anilinoquinazoline]
effectiveness compared with chlortetracycline (in words) [1]: considerably more effective | inhibition of growth at 0.007 ppm ([2]; 0.007 ppm): 0% | inhibition of growth at 0.01 ppm ([2]; 0.01 ppm): 0% | inhibition of growth at 0.03 ppm ([2]; 0.03 ppm): 0% | inhibition of growth at 0.06 ppm ([2]; 0.06 ppm): 0% | inhibition of growth at 0.125 ppm ([2]; 0.125 ppm): 0% | inhibition of growth at 0.25 ppm ([2]; 0.25 ppm): 0% | inhibition of growth at 0.5 ppm ([2]; 0.5 ppm): 0% | inhibition of growth at 1 ppm ([2]; 1 ppm): 50% | inhibition of growth at 2 ppm ([2]; 2 ppm): 50% | inhibition of growth at 4 ppm ([2]; 4 ppm): 50% | inhibition of growth at 0.007 ppm ([3]; 0.007 ppm): 0% | inhibition of growth at 0.01 ppm ([3]; 0.01 ppm): 0% | inhibition of growth at 0.03 ppm ([3]; 0.03 ppm): 0% | inhibition of growth at 0.06 ppm ([3]; 0.06 ppm): 0% | inhibition of growth at 0.125 ppm ([3]; 0.125 ppm): 0% | inhibition of growth at 0.25 ppm ([3]; 0.25 ppm): 100% | inhibition of growth at 0.5 ppm ([3]; 0.5 ppm): 100% | inhibition of growth at 1 ppm ([3]; 1 ppm): 100% | inhibition of growth at 2 ppm ([3]; 2 ppm): 100% | inhibition of growth at 4 ppm ([3]; 4 ppm): 100% | effectiveness compared with chlortetracycline (in words) [4]: considerably more effective | effectiveness compared with chlortetracycline (in words) [5]: considerably more effective | effectiveness compared with chlortetracycline (in words) [6]: considerably more effective | effectiveness compared with chlortetracycline (in words) [7]: considerably more effective | effectiveness compared with chlortetracycline (in words) [8]: considerably more effective

CC[C@H](C)[C@H](N)C1=N[C@H](C(=O)N[C@@H](CC(C)C)C(=O)N[C@H](CCC(=O)O)C(=O)N[C@H](C(=O)N[C@H]2CCCCNC(=O)[C@H](CC(N)=O)NC(=O)[C@@H](CC(=O)O)NC(=O)[C@H](Cc3cnc[nH]3)NC(=O)[C@@H](Cc3ccccc3)NC(=O)[C@H]([C@@H](C)CC)NC(=O)[C@@H](CCCN)NC2=O)[C@@H](C)CC)CS1 [Bacitracin] ({Ileψ(thiazoline)Cys}-L[dE]IK[dOrn]I[dF]H[dD]N; lactam 4-C)
Average 4 Week Performance: Feed Efficiency [9]: 1.721 | Average 4 Week Performance: Gain [9]: 694.5 gms | Average 4 Week Performance: Feed Efficiency [10]: 1.739 | Average 4 Week Performance: Gain [10]: 703.6 g | Improved Response Over Basal Ration: Feed Efficiency [10]: +1.2% | Improved Response Over Basal Ration: Gain [10]: -2.3% | feed efficiency (in words) [11]: moderate improvements in feed efficiencies | growth rate (in words) [11]: slight improvements in growth rates | Average 4 Week Performance: Feed Efficiency [11]: 1.746 | Average 4 Week Performance: Gain [11]: 741.3 g | Improved Response Over Basal Ration: Feed Efficiency [11]: +3.1% | Improved Response Over Basal Ration: Gain [11]: +1.2%

[O-][n+]1cc[n+]([O-])c2ccccc21 [Quinoxaline-1,4-dioxide, quinoxaline-1,4-dioxide]
effect on feed efficiency (in words) ([12]; 25 g/T): did not have any apparent effect | growth response (in words) ([12]; 25 g/T): did not have any apparent effect | Average 4 Week Performance: Feed Efficiency [12, 13]: 1.550 | Average 4 Week Performance: Gain [12, 13]: 756.6 g | Improved Response Over Basal Ration: Feed Efficiency [12, 13]: +0.1% | Improved Response Over Basal Ration: Gain [12, 13]: -1.1% | feed efficiency (in words) [11]: improvement in feed efficiency | growth rate (in words) [11]: questionable effect on growth | Average 4 Week Performance: Feed Efficiency [11]: 1.709 | Average 4 Week Performance: Gain [11]: 740.8 g | Improved Response Over Basal Ration: Feed Efficiency [11]: +5.2% | Improved Response Over Basal Ration: Gain [11]: +1.1%
